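Exposure lasted 48 hours, with cells grown in 96-well plates and compounds tested at five concentrations. At the TGI there is no net growth.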
Tests used:
Assay in all cases: DTP human tumour cell line panel, 48 h
786-0 renal = system: 786-0 renal
A549 NSCLC = system: A549 NSCLC
ACHN renal = system: ACHN renal
CAKI-1 renal = system: CAKI-1 renal
CCRF-CEM leukemia = system: CCRF-CEM leukemia
COLO 205 colon = system: COLO 205 colon
DLD-1 colon = system: DLD-1 colon
DMS 114 small cell lung = system: DMS 114 small cell lung
DMS 273 small cell lung = system: DMS 273 small cell lung
EKVX NSCLC = system: EKVX NSCLC
HCT-116 colon = system: HCT-116 colon
HCT-15 colon = system: HCT-15 colon
HL-60(TB) leukemia = system: HL-60(TB) leukemia
HOP-18 NSCLC = system: HOP-18 NSCLC
HOP-62 NSCLC = system: HOP-62 NSCLC
HOP-92 NSCLC = system: HOP-92 NSCLC
HT29 colon = system: HT29 colon
IGROV1 ovarian = system: IGROV1 ovarian
K-562 leukemia = system: K-562 leukemia
KM12 colon = system: KM12 colon
KM20L2 colon = system: KM20L2 colon
LOX IMVI melanoma = system: LOX IMVI melanoma
LXFL 529 NSCLC = system: LXFL 529 NSCLC
M14 melanoma = system: M14 melanoma
M19-MEL melanoma = system: M19-MEL melanoma
MALME-3M melanoma = system: MALME-3M melanoma
MOLT-4 leukemia = system: MOLT-4 leukemia
NCI-H226 lung = system: NCI-H226 lung
NCI-H23 lung = system: NCI-H23 lung
NCI-H460 lung = system: NCI-H460 lung
NCI-H522 lung = system: NCI-H522 lung
OVCAR-3 ovarian = system: OVCAR-3 ovarian
OVCAR-4 ovarian = system: OVCAR-4 ovarian
OVCAR-5 ovarian = system: OVCAR-5 ovarian
OVCAR-8 ovarian = system: OVCAR-8 ovarian
RPMI-8226 leukemia = system: RPMI-8226 leukemia
RXF 393 renal = system: RXF 393 renal
SF-268 CNS = system: SF-268 CNS
SF-295 CNS = system: SF-295 CNS
SF-539 CNS = system: SF-539 CNS
SK-MEL-28 melanoma = system: SK-MEL-28 melanoma
SK-MEL-5 melanoma = system: SK-MEL-5 melanoma
SN12C renal = system: SN12C renal
SNB-19 CNS = system: SNB-19 CNS
SNB-75 CNS = system: SNB-75 CNS
SNB-78 CNS = system: SNB-78 CNS
SW-620 colon = system: SW-620 colon
TK-10 renal = system: TK-10 renal
U251 CNS = system: U251 CNS
UACC-257 melanoma = system: UACC-257 melanoma
UACC-62 melanoma = system: UACC-62 melanoma
UO-31 renal = system: UO-31 renal
XF 498 CNS = system: XF 498 CNS
A498 renal = system: A498 renal
HCC-2998 colon = system: HCC-2998 colon
SK-MEL-2 melanoma = system: SK-MEL-2 melanoma
SK-OV-3 ovarian = system: SK-OV-3 ovarian
SR leukemia = system: SR leukemia

**Q.** Which TGI (786-0 renal) does the source give for `COc1cc(/C=C\c2cccnc2)cc(OC)c1OC` here?
**A.** > 100 µM

**Q.** What about the TGI (A549 NSCLC) of the same molecule?
**A.** > 100 µM

**Q.** What about the TGI (ACHN renal) of the same molecule?
**A.** > 100 µM

**Q.** And the TGI (CAKI-1 renal)?
**A.** > 100 µM

**Q.** What about the TGI (CCRF-CEM leukemia) of the same molecule?
**A.** > 100 µM

**Q.** And the TGI (COLO 205 colon)?
**A.** 69 µM

**Q.** What about the TGI (DLD-1 colon) of the same molecule?
**A.** > 100 µM

**Q.** And the TGI (DMS 114 small cell lung)?
**A.** > 100 µM

**Q.** And the TGI (DMS 273 small cell lung)?
**A.** > 100 µM

**Q.** And the TGI (EKVX NSCLC)?
**A.** > 100 µM

**Q.** What about the TGI (HCT-116 colon) of the same molecule?
**A.** > 100 µM

**Q.** And the TGI (HCT-15 colon)?
**A.** > 100 µM

**Q.** What about the TGI (HL-60(TB) leukemia) of the same molecule?
**A.** 48 µM

**Q.** And the TGI (HOP-18 NSCLC)?
**A.** > 100 µM

**Q.** And the TGI (HOP-62 NSCLC)?
**A.** > 100 µM

**Q.** What about the TGI (HOP-92 NSCLC) of the same molecule?
**A.** > 100 µM

**Q.** What about the TGI (HT29 colon) of the same molecule?
**A.** > 100 µM

**Q.** What about the TGI (IGROV1 ovarian) of the same molecule?
**A.** > 100 µM

**Q.** And the TGI (K-562 leukemia)?
**A.** > 100 µM

**Q.** And the TGI (KM12 colon)?
**A.** > 100 µM

**Q.** What about the TGI (KM20L2 colon) of the same molecule?
**A.** > 100 µM

**Q.** And the TGI (LOX IMVI melanoma)?
**A.** 71.3 µM

**Q.** And the TGI (LXFL 529 NSCLC)?
**A.** > 100 µM

**Q.** And the TGI (M14 melanoma)?
**A.** 97.2 µM

**Q.** What about the TGI (M19-MEL melanoma) of the same molecule?
**A.** > 100 µM

**Q.** What about the TGI (MALME-3M melanoma) of the same molecule?
**A.** > 100 µM

**Q.** What about the TGI (MOLT-4 leukemia) of the same molecule?
**A.** 43.1 µM

**Q.** And the TGI (NCI-H226 lung)?
**A.** > 100 µM

**Q.** And the TGI (NCI-H23 lung)?
**A.** > 100 µM

**Q.** What about the TGI (NCI-H460 lung) of the same molecule?
**A.** > 100 µM

**Q.** What about the TGI (NCI-H522 lung) of the same molecule?
**A.** 96.3 µM

**Q.** What about the TGI (OVCAR-3 ovarian) of the same molecule?
**A.** > 100 µM

**Q.** And the TGI (OVCAR-4 ovarian)?
**A.** > 100 µM

**Q.** What about the TGI (OVCAR-5 ovarian) of the same molecule?
**A.** > 100 µM

**Q.** What about the TGI (OVCAR-8 ovarian) of the same molecule?
**A.** > 100 µM

**Q.** And the TGI (RPMI-8226 leukemia)?
**A.** 47.7 µM

**Q.** And the TGI (RXF 393 renal)?
**A.** 88.5 µM

**Q.** What about the TGI (SF-268 CNS) of the same molecule?
**A.** > 100 µM

**Q.** What about the TGI (SF-295 CNS) of the same molecule?
**A.** > 100 µM

**Q.** What about the TGI (SF-539 CNS) of the same molecule?
**A.** > 100 µM

**Q.** And the TGI (SK-MEL-28 melanoma)?
**A.** > 100 µM

**Q.** And the TGI (SK-MEL-5 melanoma)?
**A.** 40.8 µM

**Q.** And the TGI (SN12C renal)?
**A.** > 100 µM

**Q.** What about the TGI (SNB-19 CNS) of the same molecule?
**A.** > 100 µM

**Q.** What about the TGI (SNB-75 CNS) of the same molecule?
**A.** > 100 µM

**Q.** What about the TGI (SNB-78 CNS) of the same molecule?
**A.** > 100 µM

**Q.** What about the TGI (SW-620 colon) of the same molecule?
**A.** > 100 µM

**Q.** What about the TGI (TK-10 renal) of the same molecule?
**A.** > 100 µM

**Q.** What about the TGI (U251 CNS) of the same molecule?
**A.** > 100 µM

**Q.** What about the TGI (UACC-257 melanoma) of the same molecule?
**A.** > 100 µM

**Q.** What about the TGI (UACC-62 melanoma) of the same molecule?
**A.** > 100 µM

**Q.** What about the TGI (UO-31 renal) of the same molecule?
**A.** > 100 µM

**Q.** And the TGI (XF 498 CNS)?
**A.** > 100 µM

**Q.** Which results are given for `O=C(Oc1ccc(Cl)cc1[N+](=O)[O-])c1ccccc1`?
**A.** TGI (A498 renal): > 100 µM; TGI (A549 NSCLC): > 100 µM; TGI (ACHN renal): > 100 µM; TGI (CCRF-CEM leukemia): > 100 µM; TGI (COLO 205 colon): > 100 µM; TGI (DLD-1 colon): > 100 µM; TGI (DMS 114 small cell lung): > 100 µM; TGI (DMS 273 small cell lung): > 100 µM; TGI (EKVX NSCLC): > 100 µM; TGI (HCC-2998 colon): > 100 µM; TGI (HCT-116 colon): > 100 µM; TGI (HCT-15 colon): > 100 µM; TGI (HL-60(TB) leukemia): > 100 µM; TGI (HOP-18 NSCLC): > 100 µM; TGI (HOP-62 NSCLC): > 100 µM; TGI (HOP-92 NSCLC): > 100 µM; TGI (HT29 colon): > 100 µM; TGI (IGROV1 ovarian): > 100 µM; TGI (K-562 leukemia): > 100 µM; TGI (KM12 colon): > 100 µM; TGI (KM20L2 colon): > 100 µM; TGI (LOX IMVI melanoma): > 100 µM; TGI (LXFL 529 NSCLC): > 100 µM; TGI (M14 melanoma): > 100 µM; TGI (M19-MEL melanoma): > 100 µM; TGI (MALME-3M melanoma): > 100 µM; TGI (MOLT-4 leukemia): > 100 µM; TGI (NCI-H226 lung): > 100 µM; TGI (NCI-H23 lung): > 100 µM; TGI (NCI-H460 lung): > 100 µM; TGI (OVCAR-3 ovarian): > 100 µM; TGI (OVCAR-4 ovarian): > 100 µM; TGI (OVCAR-5 ovarian): > 100 µM; TGI (OVCAR-8 ovarian): > 100 µM; TGI (RPMI-8226 leukemia): > 100 µM; TGI (RXF 393 renal): > 100 µM; TGI (SF-268 CNS): > 100 µM; TGI (SF-295 CNS): > 100 µM; TGI (SF-539 CNS): > 100 µM; TGI (SK-MEL-2 melanoma): > 100 µM; TGI (SK-MEL-28 melanoma): > 100 µM; TGI (SK-MEL-5 melanoma): 36.7 µM; TGI (SK-OV-3 ovarian): > 100 µM; TGI (SN12C renal): > 100 µM; TGI (SNB-19 CNS): > 100 µM; TGI (SNB-75 CNS): > 100 µM; TGI (SNB-78 CNS): > 100 µM; TGI (SR leukemia): > 100 µM; TGI (SW-620 colon): > 100 µM; TGI (TK-10 renal): > 100 µM; TGI (U251 CNS): > 100 µM; TGI (UACC-257 melanoma): > 100 µM; TGI (UACC-62 melanoma): > 100 µM; TGI (UO-31 renal): > 100 µM; TGI (XF 498 CNS): > 100 µM

Source: PubChem BioAssay (NCI)
